Measured values from PubChem BioAssay (NCI).
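Cultured in 96-well plates, cells were exposed to test compound for 48 hours across five concentrations. TGI marks complete inhibition of growth.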

What was measured:
Assay in all cases: NCI tumour cell line growth inhibition, 48 h
NCI/ADR-RES ovarian = tested on: NCI/ADR-RES ovarian
KM12 colon = tested on: KM12 colon
BT-549 breast = tested on: BT-549 breast
MALME-3M melanoma = tested on: MALME-3M melanoma
HCT-116 colon = tested on: HCT-116 colon
ACHN renal = tested on: ACHN renal
SK-OV-3 ovarian = tested on: SK-OV-3 ovarian
NCI-H23 lung = tested on: NCI-H23 lung
DU-145 prostate = tested on: DU-145 prostate
UACC-62 melanoma = tested on: UACC-62 melanoma
HL-60(TB) leukemia = tested on: HL-60(TB) leukemia
NCI-H226 lung = tested on: NCI-H226 lung
M14 melanoma = tested on: M14 melanoma
RXF 393 renal = tested on: RXF 393 renal
CAKI-1 renal = tested on: CAKI-1 renal
SNB-75 CNS = tested on: SNB-75 CNS
MOLT-4 leukemia = tested on: MOLT-4 leukemia
A498 renal = tested on: A498 renal
A549 NSCLC = tested on: A549 NSCLC
NCI-H460 lung = tested on: NCI-H460 lung
786-0 renal = tested on: 786-0 renal
UO-31 renal = tested on: UO-31 renal
HS 578T breast = tested on: HS 578T breast
T-47D breast = tested on: T-47D breast
OVCAR-4 ovarian = tested on: OVCAR-4 ovarian
OVCAR-8 ovarian = tested on: OVCAR-8 ovarian
HT29 colon = tested on: HT29 colon
OVCAR-3 ovarian = tested on: OVCAR-3 ovarian
K-562 leukemia = tested on: K-562 leukemia
OVCAR-5 ovarian = tested on: OVCAR-5 ovarian
CCRF-CEM leukemia = tested on: CCRF-CEM leukemia
SR leukemia = tested on: SR leukemia
SF-268 CNS = tested on: SF-268 CNS
PC-3 prostate = tested on: PC-3 prostate
TK-10 renal = tested on: TK-10 renal
SK-MEL-2 melanoma = tested on: SK-MEL-2 melanoma
SF-295 CNS = tested on: SF-295 CNS
MDA-N = tested on: MDA-N
SK-MEL-28 melanoma = tested on: SK-MEL-28 melanoma
HCT-15 colon = tested on: HCT-15 colon
MDA-MB-231 breast = tested on: MDA-MB-231 breast
MDA-MB-435 = tested on: MDA-MB-435
UACC-257 melanoma = tested on: UACC-257 melanoma
SN12C renal = tested on: SN12C renal
IGROV1 ovarian = tested on: IGROV1 ovarian
EKVX NSCLC = tested on: EKVX NSCLC
LOX IMVI melanoma = tested on: LOX IMVI melanoma
COLO 205 colon = tested on: COLO 205 colon
NCI-H522 lung = tested on: NCI-H522 lung
SW-620 colon = tested on: SW-620 colon
U251 CNS = tested on: U251 CNS
MCF7 breast = tested on: MCF7 breast
HOP-62 NSCLC = tested on: HOP-62 NSCLC
SK-MEL-5 melanoma = tested on: SK-MEL-5 melanoma
SNB-19 CNS = tested on: SNB-19 CNS
RPMI-8226 leukemia = tested on: RPMI-8226 leukemia
HOP-92 NSCLC = tested on: HOP-92 NSCLC
HCC-2998 colon = tested on: HCC-2998 colon
SF-539 CNS = tested on: SF-539 CNS

Structure (SMILES): CCOC(=O)C1C(O)CC2c3ccccc3-c3ccccc3C21 (stereo unspecified)
- TGI (NCI/ADR-RES ovarian): > 100 µM
- TGI (KM12 colon): > 100 µM
- TGI (BT-549 breast): > 100 µM
- TGI (MALME-3M melanoma): > 100 µM
- TGI (HCT-116 colon): 41.4 µM
- TGI (ACHN renal): > 100 µM
- TGI (SK-OV-3 ovarian): 45.5 µM
- TGI (NCI-H23 lung): > 100 µM
- TGI (DU-145 prostate): > 100 µM
- TGI (UACC-62 melanoma): > 100 µM
- TGI (HL-60(TB) leukemia): > 100 µM
- TGI (NCI-H226 lung): 60.1 µM
- TGI (M14 melanoma): > 100 µM
- TGI (RXF 393 renal): > 100 µM
- TGI (CAKI-1 renal): > 100 µM
- TGI (SNB-75 CNS): 67.1 µM
- TGI (MOLT-4 leukemia): > 100 µM
- TGI (A498 renal): 68.9 µM
- TGI (A549 NSCLC): > 100 µM
- TGI (NCI-H460 lung): > 100 µM
- TGI (786-0 renal): 89 µM
- TGI (UO-31 renal): > 100 µM
- TGI (HS 578T breast): 60.6 µM
- TGI (T-47D breast): > 100 µM
- TGI (OVCAR-4 ovarian): > 100 µM
- TGI (OVCAR-8 ovarian): 48.1 µM
- TGI (HT29 colon): > 100 µM
- TGI (OVCAR-3 ovarian): > 100 µM
- TGI (K-562 leukemia): > 100 µM
- TGI (OVCAR-5 ovarian): > 100 µM
- TGI (CCRF-CEM leukemia): > 100 µM
- TGI (SR leukemia): > 100 µM
- TGI (SF-268 CNS): > 100 µM
- TGI (PC-3 prostate): > 100 µM
- TGI (TK-10 renal): > 100 µM
- TGI (SK-MEL-2 melanoma): > 100 µM
- TGI (SF-295 CNS): > 100 µM
- TGI (MDA-N): > 100 µM
- TGI (SK-MEL-28 melanoma): > 100 µM
- TGI (HCT-15 colon): > 100 µM
- TGI (MDA-MB-231 breast): > 100 µM
- TGI (MDA-MB-435): > 100 µM
- TGI (UACC-257 melanoma): > 100 µM
- TGI (SN12C renal): > 100 µM
- TGI (IGROV1 ovarian): > 100 µM
- TGI (EKVX NSCLC): > 100 µM
- TGI (LOX IMVI melanoma): > 100 µM
- TGI (COLO 205 colon): > 100 µM
- TGI (NCI-H522 lung): > 100 µM
- TGI (SW-620 colon): > 100 µM
- TGI (U251 CNS): 75.5 µM
- TGI (MCF7 breast): > 100 µM
- TGI (HOP-62 NSCLC): 91.2 µM
- TGI (SK-MEL-5 melanoma): > 100 µM
- TGI (SNB-19 CNS): > 100 µM
- TGI (RPMI-8226 leukemia): > 100 µM
- TGI (HOP-92 NSCLC): 75 µM

Structure (SMILES): CC1=C(O)C(=O)C(C2=C(O)C(=O)C(C)=C(O)C2=O)=C(O)C1=O
- TGI (NCI/ADR-RES ovarian): > 100 µM
- TGI (KM12 colon): > 100 µM
- TGI (BT-549 breast): > 100 µM
- TGI (MALME-3M melanoma): 46.6 µM
- TGI (HCT-116 colon): > 100 µM
- TGI (ACHN renal): > 100 µM
- TGI (SK-OV-3 ovarian): > 100 µM
- TGI (NCI-H23 lung): > 100 µM
- TGI (DU-145 prostate): > 100 µM
- TGI (UACC-62 melanoma): 54 µM
- TGI (HL-60(TB) leukemia): > 100 µM
- TGI (NCI-H226 lung): > 100 µM
- TGI (M14 melanoma): > 100 µM
- TGI (RXF 393 renal): > 100 µM
- TGI (CAKI-1 renal): > 100 µM
- TGI (SNB-75 CNS): > 100 µM
- TGI (MOLT-4 leukemia): > 100 µM
- TGI (A498 renal): > 100 µM
- TGI (NCI-H460 lung): > 100 µM
- TGI (786-0 renal): > 100 µM
- TGI (UO-31 renal): > 100 µM
- TGI (HS 578T breast): > 100 µM
- TGI (T-47D breast): > 100 µM
- TGI (OVCAR-4 ovarian): > 100 µM
- TGI (OVCAR-8 ovarian): > 100 µM
- TGI (HT29 colon): > 100 µM
- TGI (OVCAR-3 ovarian): > 100 µM
- TGI (K-562 leukemia): > 100 µM
- TGI (OVCAR-5 ovarian): > 100 µM
- TGI (CCRF-CEM leukemia): > 100 µM
- TGI (SR leukemia): > 100 µM
- TGI (SF-268 CNS): > 100 µM
- TGI (PC-3 prostate): > 100 µM
- TGI (HCC-2998 colon): > 100 µM
- TGI (SF-295 CNS): > 100 µM
- TGI (MDA-N): > 100 µM
- TGI (SK-MEL-28 melanoma): > 100 µM
- TGI (HCT-15 colon): > 100 µM
- TGI (MDA-MB-231 breast): > 100 µM
- TGI (MDA-MB-435): > 100 µM
- TGI (UACC-257 melanoma): > 100 µM
- TGI (SN12C renal): > 100 µM
- TGI (SF-539 CNS): > 100 µM
- TGI (IGROV1 ovarian): > 100 µM
- TGI (EKVX NSCLC): > 100 µM
- TGI (LOX IMVI melanoma): > 100 µM
- TGI (COLO 205 colon): > 100 µM
- TGI (NCI-H522 lung): > 100 µM
- TGI (SW-620 colon): > 100 µM
- TGI (U251 CNS): > 100 µM
- TGI (MCF7 breast): > 100 µM
- TGI (HOP-62 NSCLC): > 100 µM
- TGI (SK-MEL-5 melanoma): 67.9 µM
- TGI (SNB-19 CNS): > 100 µM
- TGI (RPMI-8226 leukemia): > 100 µM
- TGI (HOP-92 NSCLC): 92.1 µM

Structure (SMILES): CC/C=C/C[C@H](O[Si](C)(C)C(C)(C)C)[C@H]1C[C@H]2O[C@H]([C@@H](O)C#C[Si](C)(C)C)C[C@H]2O1
- TGI (NCI/ADR-RES ovarian): 26.3 µM
- TGI (KM12 colon): 39.2 µM
- TGI (BT-549 breast): 33.4 µM
- TGI (MALME-3M melanoma): 24.8 µM
- TGI (HCT-116 colon): 24.5 µM
- TGI (ACHN renal): 29 µM
- TGI (SK-OV-3 ovarian): 28.9 µM
- TGI (NCI-H23 lung): 24.7 µM
- TGI (DU-145 prostate): 28.3 µM
- TGI (UACC-62 melanoma): 34.1 µM
- TGI (HL-60(TB) leukemia): > 100 µM
- TGI (NCI-H226 lung): 20.6 µM
- TGI (M14 melanoma): 24.7 µM
- TGI (RXF 393 renal): 20.4 µM
- TGI (CAKI-1 renal): 24.2 µM
- TGI (SNB-75 CNS): 31 µM
- TGI (MOLT-4 leukemia): > 48.6 µM
- TGI (A498 renal): 32.8 µM
- TGI (A549 NSCLC): 21.8 µM
- TGI (NCI-H460 lung): 36 µM
- TGI (786-0 renal): 28 µM
- TGI (UO-31 renal): 27.6 µM
- TGI (HS 578T breast): 32.4 µM
- TGI (T-47D breast): 23.2 µM
- TGI (OVCAR-4 ovarian): 23.1 µM
- TGI (OVCAR-8 ovarian): 27.9 µM
- TGI (HT29 colon): 24.4 µM
- TGI (OVCAR-3 ovarian): 30.2 µM
- TGI (K-562 leukemia): > 44.3 µM
- TGI (OVCAR-5 ovarian): 27.3 µM
- TGI (CCRF-CEM leukemia): > 100 µM
- TGI (SR leukemia): 7.66 µM
- TGI (SF-268 CNS): 27.4 µM
- TGI (PC-3 prostate): 26.2 µM
- TGI (TK-10 renal): 30 µM
- TGI (HCC-2998 colon): 35.1 µM
- TGI (SK-MEL-2 melanoma): 31.3 µM
- TGI (SF-295 CNS): 27.5 µM
- TGI (MDA-N): 24.8 µM
- TGI (SK-MEL-28 melanoma): 29.7 µM
- TGI (HCT-15 colon): 26.6 µM
- TGI (MDA-MB-231 breast): 30.2 µM
- TGI (MDA-MB-435): 25.3 µM
- TGI (UACC-257 melanoma): 23.2 µM
- TGI (SN12C renal): 17.2 µM
- TGI (IGROV1 ovarian): 27.5 µM
- TGI (EKVX NSCLC): 25.9 µM
- TGI (LOX IMVI melanoma): 22.1 µM
- TGI (COLO 205 colon): 28.2 µM
- TGI (NCI-H522 lung): 11.9 µM
- TGI (SW-620 colon): 37.7 µM
- TGI (U251 CNS): 30.2 µM
- TGI (MCF7 breast): 20.9 µM
- TGI (HOP-62 NSCLC): 30.4 µM
- TGI (SK-MEL-5 melanoma): 20 µM
- TGI (SNB-19 CNS): 26.9 µM
- TGI (RPMI-8226 leukemia): 37.6 µM
- TGI (HOP-92 NSCLC): 22.4 µM
